# Results from patent US20210361575A1, “LIPID PRODRUGS FOR USE IN DRUG DELIVERY” (NEW MEXICO TECH UNIVERSITY RESEARCH PARK CORPORATION, priority 2018, published 2021).
# Like-named read-outs stand apart in the source and are kept apart here.
# Tests used:
# MCF10A cells = test: MTT cytotoxicity of prodrug-loaded liposomes and parent compounds, MCF10A; assay type: cell-based; details: 48 hours, free parent compounds or prodrug-incorporated liposomes (20 mol %), read-out: cell viability (MTT), potency
# HeLa cells [1] = test: MTT cytotoxicity of prodrug-loaded liposomes and parent compounds, HeLa; assay type: cell-based, Human; details: 48 hours, free parent compounds or prodrug-incorporated liposomes (20 mol %), read-out: cell viability (MTT), potency
# MCF-7 cells = test: MTT cytotoxicity of prodrug-loaded liposomes and parent compounds, MCF-7; assay type: cell-based, Human; details: MCF7, 48 hours, free parent compounds or prodrug-incorporated liposomes (20 mol %), read-out: cell viability (MTT), potency
# [2] = Differential scanning calorimetry of loaded liposomes; assay type: physicochemical; details: increasing concentration, prodrugs 0 to 37 mol %, parents 0 to 31 mol %; compared to empty liposomes; not extruded
# Experimental: Prodrug-loaded liposome (PLL) samples were prepared using 20 mg of lipid per 1 mL of […] for each compound with increasing prodrug concentrations without extrusion. Deionized water was used as the calibration standard. 10 μL from each liposome suspension was transferred and sealed in an aluminum DSC pan. DSC measurements were taken at room temperature, and the sample was then heated from 15° C. to 55° C. at 5° C./min.
# DSC is a thermal analytical technique useful for designing lipid drug delivery systems, like liposomes, by determining the compatibility of mixed molecules and compositions with the liposome bilayer. The thermotropic behavior of the liposomes at varying prodrug concentrations is measured to determine whether insertion of the molecules modifies the phase transition temperature. The pre-phase transition was masked by PEG-2000. […] As the concentration was increased, the phase transition returned to the phase transition of empty liposomes. […] All liposome suspensions used for DSC analysis were prepared in deionized water instead of sodium buffer to prevent undesired interactions. The samples were not extruded.
# [3] = Liposomal particle size distribution and stability (DLS); assay type: physicochemical; parameters: liposome diameter (DLS), Pre / liposome diameter (DLS), Post: unit not given beside the values; details: for PDI, Post / liposome diameter (DLS), Post: post-extrusion; for PDI, Pre / liposome diameter (DLS), Pre: pre-extrusion
# Description: Liposomal size distribution was characterized via dynamic light scattering (DLS). Measurements were taken with disposable polystyrene sizing cuvettes containing the liposome suspensions. Reported DLS measurements are averages of 3 individually prepared liposome samples.
# The size distribution of the parent compounds and prodrug loaded liposomes were monitored over time using dynamic light scattering (DLS).
# The size distribution of 2T-T liposomes were characterized via DLS measurement both pre- and post-extrusion. The standard deviations of liposome diameter were lower post extrusion. […] The size distributions of 2T-T liposomes at loaded with various concentrations of 2T-T can be seen in TABLE 2, and FIGS. 10-11. […]
# [4] = 2T-T incorporation in liposomes (UV-vis, pre- and post-extrusion); assay type: physicochemical; details: 2T-T liposomes; for Actual Drug Incorporation - Post: post-extrusion; for Actual Drug Incorporation - Pre: pre-extrusion
# Experimental: 2T-T liposomes were produced with increasing concentrations of 2T-T, and passed through an extruder to remove any unincorporated 2T-T from the liposome solution. Liposome solutions were analyzed both pre- and post-extrusion using UV-vis spectroscopy with a scanning range of 200 nm-500 nm, 2 nm bandwidth, […], 0.5 nm data interval, and 100 nm/min scan speed. […] Incorporation limits were analyzed up to 70 mol % (147 uM).
# [5] = 2T-P and 2T-N incorporation efficiency in liposomes (UV-Vis); assay type: physicochemical; details: parent compound in liposomes
# Experimental: Parent compound and prodrug concentrations in liposomes were determined using UV-Vis spectrophotometry; (2T-P: 292 nm; 2T-N: 285 nm). PLL were prepared at varying concentrations between 0 mol % to 50 mol %. The lipid amounts remained equivalent for samples under 50 mol %. Each sample was extruded through a 200 nm pore membrane for a total of 11 passes. Prior and post extrusion liposomes were ruptured by dissolution in DMSO (liposome suspension/DMSO, 1:9, v/v). Samples were analyzed in a quartz cuvette. The following parameters were used: scan speed: 120 nm/min; bandwidth: 2 nm; integration time: 0.15 sec; data interval: 0.30 nm; start wavelength: 500 nm; end wavelength: 190 nm.
# N and P (SCHEME 1) are hydrophobic compounds that have been altered to contain an amphiphilic tail (2T-P and 2T-N), altering their incorporation within liposomes, which can be characterized using UV-Vis. This technique measures the decreasing transmittance through a sample surface. The absorption of the liposomes at varying concentrations (after removal of unincorporated material) can be used to calculate how much of a drug has been incorporated into liposomes.
# HeLa cells [6] = test: MTT cytotoxicity of 2T-T and 2T-C prodrug-loaded liposomes; assay type: cell-based; details: Homo sapiens
# Experimental: To assess the cytotoxicity of 2T-T prodrug-loaded liposomes, HeLa cells were exposed to different concentrations of topotecan or 2T-T loaded liposomes for 72 hours. After the 72 hour incubation period, cell viability was assessed via an MTT assay.
# To assess the cytotoxicity of 2T-C prodrug-loaded liposomes, HeLa cells were exposed to different concentrations of cytarabine or 2T-C(NH2 attachment) loaded liposomes for 48 hours. After the 48 hour incubation period, cell viability was assessed via a MTT assay.
smiles,measurement,setting,value
"CCCCCCCCCCCCCCCC(=O)OCC(COP(=O)([O-])OCCNC(=O)CCCC(=O)O[C@@H]1c2cc3c(cc2[C@H](c2cc(OC)c(OC)c(OC)c2)[C@@H]2C(=O)OC[C@H]21)OCO3)OC(=O)CCCCCCCCCCCCCCC.[Na+] (stereo partly drawn) [2T-P, Sodium 2,3-bis (palmitoyloxy) propyl (2-(5-oxo-5-(((5S,5aS,8aS,9S)-8-oxo-9-(3,4,5-trimethoxyphenyl)-5,5a,6,8,8a,9-hexahydrofuro[3′,4′:6,7]naphtha[2,3-d][1,3]dioxol-5-yl)oxy)pentanamido)ethyl)phosphate]",IC50,MCF10A cells,1540 ± 130 nM
same,IC50,HeLa cells [1],1370 ± 44 nM
same,IC50,MCF-7 cells,2560 ± 126 nM
same,phase transition temperature behaviour (DSC thermograms),[2],shallow decreasing phase transition temperatures
CCCCCCCCCCCCCCCC(=O)OCC(COP(=O)([O-])OCCNC(=O)CCCC(=O)Oc1ccc2nc3c(cc2c1CN(C)C)Cn1c-3cc2c(c1=O)COC(=O)[C@@]2(O)CC)OC(=O)CCCCCCCCCCCCCCC.[Na+] (some centres unmarked) [2T-T],"PDI, Post",[3]; 2T-T 10 mol %,0.3 ± 0
same,"liposome diameter (DLS), Post",[3]; 2T-T 10 mol %,130 ± 7
same,"PDI, Pre",[3]; 2T-T 10 mol %,0.3 ± 0
same,"liposome diameter (DLS), Pre",[3]; 2T-T 10 mol %,102 ± 19
same,"PDI, Post",[3]; 2T-T 20 mol %,0.3 ± 0
same,"liposome diameter (DLS), Post",[3]; 2T-T 20 mol %,129 ± 9
same,"PDI, Pre",[3]; 2T-T 20 mol %,0.3 ± 0.1
same,"liposome diameter (DLS), Pre",[3]; 2T-T 20 mol %,121 ± 16
same,"PDI, Post",[3]; 2T-T 30 mol %,0.3 ± 0
same,"liposome diameter (DLS), Post",[3]; 2T-T 30 mol %,118 ± 25
same,"PDI, Pre",[3]; 2T-T 30 mol %,0.3 ± 0
same,"liposome diameter (DLS), Pre",[3]; 2T-T 30 mol %,98 ± 28
same,"PDI, Post",[3]; 2T-T 40 mol %,0.3 ± 0
same,"liposome diameter (DLS), Post",[3]; 2T-T 40 mol %,123 ± 10
same,"PDI, Pre",[3]; 2T-T 40 mol %,0.3 ± 0
same,"liposome diameter (DLS), Pre",[3]; 2T-T 40 mol %,114 ± 24
same,"PDI, Post",[3]; 2T-T 50* mol %,0.3
same,"liposome diameter (DLS), Post",[3]; 2T-T 50* mol %,122.4
same,"PDI, Pre",[3]; 2T-T 50* mol %,0.3
same,"liposome diameter (DLS), Pre",[3]; 2T-T 50* mol %,122.4
same,"PDI, Post",[3]; 2T-T 60* mol %,0.3
same,"liposome diameter (DLS), Post",[3]; 2T-T 60* mol %,88.76
same,"PDI, Pre",[3]; 2T-T 60* mol %,0.5
same,"liposome diameter (DLS), Pre",[3]; 2T-T 60* mol %,182.9
same,"PDI, Post",[3]; 2T-T 70* mol %,0.3
same,"liposome diameter (DLS), Post",[3]; 2T-T 70* mol %,75.43
same,"PDI, Pre",[3]; 2T-T 70* mol %,0.4
same,"liposome diameter (DLS), Pre",[3]; 2T-T 70* mol %,172.1
same,Actual Drug Incorporation - Post,[4]; predicted 10 mol % (28.2 uM),22.1 ± 7.9 µM
same,Actual Drug Incorporation - Pre,[4]; predicted 10 mol % (28.2 uM),25.3 ± 6.6 µM
same,Actual Drug Incorporation - Post,[4]; predicted 20 mol % (53.4 uM),42.8 ± 4.8 µM
same,Actual Drug Incorporation - Pre,[4]; predicted 20 mol % (53.4 uM),46.8 ± 4.8 µM
same,Actual Drug Incorporation - Post,[4]; predicted 30 mol % (76.0 uM),66.2 ± 4.9 µM
same,Actual Drug Incorporation - Pre,[4]; predicted 30 mol % (76.0 uM),71.5 ± 5.1 µM
same,Actual Drug Incorporation - Post,[4]; predicted 40 mol % (96.5 uM),77.9 ± 12.3 µM
same,Actual Drug Incorporation - Pre,[4]; predicted 40 mol % (96.5 uM),82.6 ± 13.1 µM
same,Actual Drug Incorporation - Post,[4]; predicted 50* mol % (115.1 uM),116.2 µM
same,Actual Drug Incorporation - Pre,[4]; predicted 50* mol % (115.1 uM),113.4 µM
same,Actual Drug Incorporation - Post,[4]; predicted 60* mol % (132.0 uM),126.2 µM
same,Actual Drug Incorporation - Pre,[4]; predicted 60* mol % (132.0 uM),125.4 µM
same,Actual Drug Incorporation - Post,[4]; predicted 70* mol % (147.6 uM),133.7 µM
same,Actual Drug Incorporation - Pre,[4]; predicted 70* mol % (147.6 uM),133.0 µM
"O=C1OCC2=C1C(c1cc(Br)cc(Br)c1)c1ccc3ccc(O)cc3c1N2 (centres unmarked) [N, 7-(3,5-Dibromophenyl)-2-hydroxy-7,11-dihydrobenzo[h]-furo[3,4-b]quinolin-8(10H)-one]",IC50,"MCF10A cells; Homo sapiens, MCF-10A",5 nM
same,IC50,HeLa cells [1]; Homo sapiens,5 ± 1 nM
same,IC50,MCF-7 cells; Homo sapiens,3 nM
same,maximum measured loading,[5],~1.1 mol %
"COc1cc([C@@H]2c3cc4c(cc3[C@H](O)[C@H]3COC(=O)[C@H]23)OCO4)cc(OC)c1OC [P, podophyllotoxin]",IC50,"MCF10A cells; Homo sapiens, MCF-10A",14 ± 4 nM
same,IC50,HeLa cells [1]; Homo sapiens,9 ± 1 nM
same,IC50,MCF-7 cells; Homo sapiens,9 ± 4 nM
same,maximum measured loading,[5],~11 mol %
Nc1ccn([C@@H]2O[C@H](CO)[C@@H](O)[C@@H]2O)c(=O)n1 [cytarabine],IC50,HeLa cells [6]; 48 hours,4450 ± 6290 nM
CC[C@@]1(O)C(=O)OCc2c1cc1n(c2=O)Cc2cc3c(CN(C)C)c(O)ccc3nc2-1 [topotecan],IC50,HeLa cells [6]; 72 hours,51 ± 1 nM
